System: A375 multi-cell spheroids with HUVEC/MSC, viability
Assay: Anticancer human tumor A375 cell line growth inhibition [GQUAD];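 note: spheroids exposed to compounds for seven days before readout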
Details: for IC50: curve of first compound; for viability, T/C: stronger effect = lower value
Excerpt: DNA G-quadruplex Stabilizer Agents in Combinations in Complex Spheroids
A high-throughput screen of multi-cell type tumor spheroids was designed to identify active combinations of DNA G-quadruplex stabilizer agents and targeted small molecules. Complex spheroids include a stromal component modeled by human endothelial cells (HUVEC) and fibroblasts modeled by human mesenchymal stem cells (MSCs). The concentration ranges selected for each drug and investigational agent were based upon clinically achievable concentrations if the clinical Cmax of the agent was known.
Compounds. The drugs and investigational agents: pidnarulex (CX-5461; NSC782164), APTO-253 (NSC789042), BRACO-19 (NSC847499), peposertib (NSC802822), ceralasertib (NSC780249), elimusertib (NSC800525), camonsertib (NSC841442), AZD-1390 (NSC803789), olaparib (NSC753686), talazoparib (NSC767125), ART-558 (NSC835418), sotorasib (NSC818433), MRTX-1133 (NSC836407), SN-38 (NSC673596), topotecan (NSC609699), etoposide (NSC141540), doxorubicin (NSC123127), gemcitabine (NSC613327), 5-fluorouracil (NSC19893), paclitaxel (NSC125973), vemurafenib (NSC761431), panobinostat (NSC761190), R-306465 (JNJ-16241199; NSC773264), adavosertib (NSC754352), TP-3654 (NSC805149), carboplatin (NSC241240), KSQ-4279 (NSC840948), and staurosporine (NSC755774) were obtained from the National Cancer Institute (NCI) Developmental Therapeutics Program Chemical Repository (34). The FDA-approved anticancer drug set is available from the NCI Developmental Therapeutics Program. […] The stock solutions were prepared in dimethyl sulfoxide (DMSO, Sigma-Aldrich, St. Louis, MO, cat. D2650) at 800-fold the tested concentration and stored at -70 degrees C prior to their use. All drugs and investigational agents were tested over a range starting from a high concentration at or near the clinical Cmax and decreasing in half-log increments. If the clinical Cmax for an agent had not been determined, the highest concentration tested was 10 microM.
2.3 Cell Culture. All cells were maintained in an incubator at 37 degrees C and 5% CO2 with 95% humidity. The PDC lines were cultured according to standard operating procedures established by the NCI PDMR. All PDCs were thawed and cultured in Matrigel-coated flasks prepared with a working solution of 1X Ham's F-12 nutrient mix, without supplementation (Invitrogen, cat. 11765054), 100 U/mL penicillin-streptomycin (Invitrogen, cat. 15140122), and 2.5% Matrigel (Corning Inc., cat. 354248) for the first three passages. The 857933-349-R-J2-PDC line was cultured in 6C/Colon 1B media, which includes advanced DMEM/F-12 (Thermo Fisher Scientific, cat. 12634028), 10 mM HEPES (Thermo Fisher Scientific, cat. 15630080), 1X GlutaMAX supplement (Thermo Fisher Scientific, cat. 35050061), 0.1 mg/mL primocin (InvivoGen, cat. ant-pm-2), 10% defined fetal bovine serum, heat inactivated (HyClone Laboratories Inc., cat. SH30070.03HI), 50% L-WRN conditioned media (ATCC, cat. CRL-3276), 1.25 mM N-Acetyl-L-cysteine (Sigma-Aldrich, cat. A9165), 10 mM nicotinamide (Sigma-Aldrich, cat. N0636), 1X B-27 supplement (Thermo Fisher Scientific, cat. 17504044), 1X N-2 supplement (Thermo Fisher Scientific, cat. 17502048), 10 microM Y-27632 dihydrochloride (Tocris Bioscience, cat. 1254), and 50 ng/mL human EGF recombinant protein (Thermo Fisher Scientific, cat. PHG0311). The 485176-168-R4-J1-PDC line was cultured in Panc media, which includes all 6C/Colon 1B media components plus 100 ng/mL human FGF-10 (Thermo Fisher Scientific, cat. 100-26), 500 nM SB-431542 (Selleckchem, cat. S1067), and gastrin (Tocris, cat. 3006).
[…]

[1] = second compound 0.0316 µM, first compound 0.0316 µM
[2] = second compound 0.0316 µM, first compound 0.1 µM
[3] = second compound 0.0316 µM, first compound 0.316 µM
[4] = second compound 0.0316 µM, first compound 1 µM
[5] = second compound 0.0316 µM, first compound 3.16 µM
[6] = second compound 0.0316 µM, first compound 10 µM
[7] = second compound 0.1 µM, first compound 0.0316 µM
[8] = second compound 0.1 µM, first compound 0.1 µM
[9] = second compound 0.1 µM, first compound 0.316 µM
[10] = second compound 0.1 µM, first compound 1 µM
[11] = second compound 0.1 µM, first compound 3.16 µM
[12] = second compound 0.1 µM, first compound 10 µM
[13] = second compound 0.316 µM, first compound 0.0316 µM
[14] = second compound 0.316 µM, first compound 0.1 µM
[15] = second compound 0.316 µM, first compound 0.316 µM
[16] = second compound 0.316 µM, first compound 1 µM
[17] = second compound 0.316 µM, first compound 3.16 µM
[18] = second compound 0.316 µM, first compound 10 µM
[19] = second compound 1 µM, first compound 0.0316 µM
[20] = second compound 1 µM, first compound 0.1 µM
[21] = second compound 1 µM, first compound 0.316 µM
[22] = second compound 1 µM, first compound 1 µM
[23] = second compound 1 µM, first compound 3.16 µM
[24] = second compound 1 µM, first compound 10 µM
[25] = second compound 3.16 µM, first compound 0.0316 µM
[26] = second compound 3.16 µM, first compound 0.1 µM
[27] = second compound 3.16 µM, first compound 0.316 µM
[28] = second compound 3.16 µM, first compound 1 µM
[29] = second compound 3.16 µM, first compound 3.16 µM
[30] = second compound 3.16 µM, first compound 10 µM
[31] = second compound 10 µM, first compound 0.0316 µM
[32] = second compound 10 µM, first compound 0.1 µM
[33] = second compound 10 µM, first compound 0.316 µM
[34] = second compound 10 µM, first compound 1 µM
[35] = second compound 10 µM, first compound 3.16 µM
[36] = second compound 10 µM, first compound 10 µM

`CCCS(=O)(=O)Nc1ccc(F)c(C(=O)c2c[nH]c3ncc(-c4ccc(Cl)cc4)cc23)c1F` + Cc1[nH]c2ccc(F)cc2c1-c1nc2c3cccnc3c3ncccc3c2[nH]1 showed an IC50 (second compound 0.0316 µM) of under 31.6 nM, an IC50 (second compound 0.1 µM) of under 31.6 nM and an IC50 (second compound 0.316 µM) of under 31.6 nM. The IC50 (second compound 1 µM) was under 31.6 nM, the IC50 (second compound 3.16 µM) was under 31.6 nM and the IC50 (second compound 10 µM) was under 31.6 nM. For the same compound, the viability, T/C [1] was 47.1%, the viability, T/C [2] was 14.9% and the viability, T/C [3] was 7.54%. It also gave a viability, T/C [4] of 5.63%, a viability, T/C [5] of 6% and a viability, T/C [6] of 6.44%. It also gave a viability, T/C [7] of 40.4%, a viability, T/C [8] of 15.4% and a viability, T/C [9] of 8.57%. The viability, T/C [10] was 6.32%, the viability, T/C [11] was 5.78% and the viability, T/C [12] was 5.39%. It also gave a viability, T/C [13] of 43.6%, a viability, T/C [14] of 13.7% and a viability, T/C [15] of 8.7%. It also gave a viability, T/C [16] of 6.15%, a viability, T/C [17] of 5.37% and a viability, T/C [18] of 4.44%. For the same compound, the viability, T/C [19] was 32%, the viability, T/C [20] was 14.6% and the viability, T/C [21] was 7.98%. It also gave a viability, T/C [22] of 5.57%, a viability, T/C [23] of 5% and a viability, T/C [24] of 1.74%. For the same compound, the viability, T/C [25] was 24.6%, the viability, T/C [26] was 10% and the viability, T/C [27] was 6.35%. It also gave a viability, T/C [28] of 3.57%, a viability, T/C [29] of 1.79% and a viability, T/C [30] of 0.23%. For the same compound, the viability, T/C [31] was 30.4%, the viability, T/C [32] was 13.4% and the viability, T/C [33] was 7.1%. The viability, T/C [34] was 4.44%, the viability, T/C [35] was 3.27% and the viability, T/C [36] was 0.2%.
With `COc1cc(C2c3cc4c(cc3C(OC3OC5COC(C)OC5C(O)C3O)C3COC(=O)C23)OCO4)cc(OC)c1O` (stereo unspecified) + Cc1[nH]c2ccc(F)cc2c1-c1nc2c3cccnc3c3ncccc3c2[nH]1 the IC50 (second compound 0.0316 µM) was 1630 nM, the IC50 (second compound 0.1 µM) was 1010 nM and the IC50 (second compound 0.316 µM) was 1840 nM. The IC50 (second compound 1 µM) was 1810 nM, the IC50 (second compound 3.16 µM) was 1300 nM and the IC50 (second compound 10 µM) was 969 nM. For the same compound, the viability, T/C [1] was 109%, the viability, T/C [2] was 109% and the viability, T/C [3] was 97.6%. It also gave a viability, T/C [4] of 59.6%, a viability, T/C [5] of 37.6% and a viability, T/C [6] of 26.9%. The viability, T/C [7] was 97.7%, the viability, T/C [8] was 134% and the viability, T/C [9] was 94.8%. The viability, T/C [10] was 51.5%, the viability, T/C [11] was 33.1% and the viability, T/C [12] was 27.7%. For the same compound, the viability, T/C [13] was 101%, the viability, T/C [14] was 156% and the viability, T/C [15] was 89.2%. The viability, T/C [16] was 68.2%, the viability, T/C [17] was 40.2% and the viability, T/C [18] was 26%. The viability, T/C [19] was 109%, the viability, T/C [20] was 130% and the viability, T/C [21] was 89.7%. The viability, T/C [22] was 62.5%, the viability, T/C [23] was 43.2% and the viability, T/C [24] was 29%. The viability, T/C [25] was 69%, the viability, T/C [26] was 86.6% and the viability, T/C [27] was 69.8%. For the same compound, the viability, T/C [28] was 51.6%, the viability, T/C [29] was 40.2% and the viability, T/C [30] was 27.8%. The viability, T/C [31] was 78.9%, the viability, T/C [32] was 87.4% and the viability, T/C [33] was 76.1%. The viability, T/C [34] was 48.2%, the viability, T/C [35] was 34.4% and the viability, T/C [36] was 25.6%.
With `O=C(c1cc(Cc2n[nH]c(=O)c3ccccc23)ccc1F)N1CCN(C(=O)C2CC2)CC1` + Cc1[nH]c2ccc(F)cc2c1-c1nc2c3cccnc3c3ncccc3c2[nH]1 the IC50 (second compound 0.0316 µM) was over 10000 nM, the IC50 (second compound 0.1 µM) was over 10000 nM and the IC50 (second compound 0.316 µM) was over 10000 nM. For the same compound, the IC50 (second compound 1 µM) was over 10000 nM, the IC50 (second compound 3.16 µM) was over 10000 nM and the IC50 (second compound 10 µM) was over 10000 nM. For the same compound, the viability, T/C [1] was 100%, the viability, T/C [2] was 88.9% and the viability, T/C [3] was 86.7%. It also gave a viability, T/C [4] of 102%, a viability, T/C [5] of 110% and a viability, T/C [6] of 80.6%. It also gave a viability, T/C [7] of 101%, a viability, T/C [8] of 97.4% and a viability, T/C [9] of 86.7%. The viability, T/C [10] was 103%, the viability, T/C [11] was 96.1% and the viability, T/C [12] was 91.5%. For the same compound, the viability, T/C [13] was 92.2%, the viability, T/C [14] was 105% and the viability, T/C [15] was 105%. It also gave a viability, T/C [16] of 94.8%, a viability, T/C [17] of 111% and a viability, T/C [18] of 83%. The viability, T/C [19] was 96.2%, the viability, T/C [20] was 95.5% and the viability, T/C [21] was 102%. The viability, T/C [22] was 102%, the viability, T/C [23] was 117% and the viability, T/C [24] was 74.7%. The viability, T/C [25] was 80.5%, the viability, T/C [26] was 78.7% and the viability, T/C [27] was 84.3%. The viability, T/C [28] was 73.4%, the viability, T/C [29] was 74.7% and the viability, T/C [30] was 61.6%. It also gave a viability, T/C [31] of 94.1%, a viability, T/C [32] of 90.5% and a viability, T/C [33] of 105%. It also gave a viability, T/C [34] of 90.8%, a viability, T/C [35] of 91.3% and a viability, T/C [36] of 72.1%.

Source: PubChem BioAssay AID2060485 (Molecular Pharmacology Branch, DTP, NCI, 2025)
